Converted amounts (≈) assume the structure as drawn.
How the values were obtained:
Assay type in all cases: functional
Conditions in all cases: time 20-24 hrs
[1] = system: Staphylococcus aureus; assay: Antimicrobial activity against antibiotic-resistant Staphylococcus aureus ATCC BAA-2312 assessed as inhibition of visible growth measured after 20 to 24 hrs incubation by CLSI method
[2] = system: Bacillus subtilis; assay: Antimicrobial activity against antibiotic-resistant Bacillus subtilis ATCC 6623 assessed as inhibition of visible growth measured after 20 to 24 hrs incubation by CLSI method
[3] = system: Staphylococcus epidermidis; assay: Antimicrobial activity against antibiotic-resistant Staphylococcus epidermidis ATCC 700296 assessed as inhibition of visible growth measured after 20 to 24 hrs incubation by CLSI method
[4] = system: Staphylococcus aureus; assay: Antimicrobial activity against antibiotic-resistant Staphylococcus aureus ATCC 33592 assessed as inhibition of visible growth measured after 20 to 24 hrs incubation by CLSI method
[5] = system: Enterococcus faecalis; assay: Antimicrobial activity against antibiotic-susceptible Enterococcus faecalis ATCC 29212 assessed as inhibition of visible growth measured after 20 to 24 hrs incubation by CLSI method
[6] = system: Staphylococcus aureus; assay: Antimicrobial activity against antibiotic-resistant Staphylococcus aureus ATCC 33591 assessed as inhibition of visible growth measured after 20 to 24 hrs incubation by CLSI method
[7] = system: Staphylococcus aureus; assay: Antimicrobial activity against Staphylococcus aureus ATCC 25923 assessed as inhibition of visible growth measured after 20 to 24 hrs incubation by CLSI method
[8] = system: Enterococcus faecalis; assay: Antimicrobial activity against antibiotic-resistant Enterococcus faecalis ATCC 51299 assessed as inhibition of visible growth measured after 20 to 24 hrs incubation by CLSI method
[9] = system: Staphylococcus aureus; assay: Antimicrobial activity against antibiotic-resistant Staphylococcus aureus ATCC 700699 assessed as inhibition of visible growth measured after 20 to 24 hrs incubation by CLSI method
[10] = system: Enterococcus faecium; assay: Antimicrobial activity against antibiotic-resistant Enterococcus faecium ATCC 700221 assessed as inhibition of visible growth measured after 20 to 24 hrs incubation by CLSI method

| SMILES | MIC [1] | MIC [2] | MIC [3] | MIC [4] | MIC [5] | MIC [6] | MIC [7] | MIC [8] | MIC [9] | MIC [10] |
| --- | --- | --- | --- | --- | --- | --- | --- | --- | --- | --- |
| O=C(O)c1ccc(-n2cc(CNc3ccc(F)c(F)c3)c(-c3ccc(F)cc3)n2)cc1 | > 32 mg/L | 16 mg/L (≈ 37.8 µM) | > 32 mg/L | > 32 mg/L | > 32 mg/L | > 32 mg/L | > 32 mg/L | > 32 mg/L | 16 mg/L (≈ 37.8 µM) | > 32 mg/L |
| O=C(O)c1ccc(-n2cc(CNc3ccc(F)c(Cl)c3)c(-c3cccc(F)c3)n2)cc1 | 8 mg/L (≈ 18.2 µM) | 4 mg/L (≈ 9.09 µM) | 16 mg/L (≈ 36.4 µM) | 16 mg/L (≈ 36.4 µM) | 32 mg/L (≈ 72.8 µM) | 8 mg/L (≈ 18.2 µM) | 16 mg/L (≈ 36.4 µM) | 32 mg/L (≈ 72.8 µM) | 16 mg/L (≈ 36.4 µM) | 32 mg/L (≈ 72.8 µM) |
| O=C(O)c1ccc(-n2cc(CNc3cc(Cl)cc(Cl)c3)c(-c3cccc(F)c3)n2)cc1 | 1 mg/L (≈ 2.19 µM) | 1 mg/L (≈ 2.19 µM) | – | 1 mg/L (≈ 2.19 µM) | 8 mg/L (≈ 17.5 µM) | 1 mg/L (≈ 2.19 µM) | 2 mg/L (≈ 4.38 µM) | – | 4 mg/L (≈ 8.77 µM) | – |
| O=C(O)c1ccc(-n2cc(CNc3ccc(F)c(C(F)(F)F)c3)c(-c3ccc(F)cc3)n2)cc1 | 4 mg/L (≈ 8.45 µM) | 2 mg/L (≈ 4.22 µM) | 8 mg/L (≈ 16.9 µM) | 4 mg/L (≈ 8.45 µM) | 16 mg/L (≈ 33.8 µM) | 2 mg/L (≈ 4.22 µM) | 4 mg/L (≈ 8.45 µM) | 16 mg/L (≈ 33.8 µM) | 8 mg/L (≈ 16.9 µM) | 16 mg/L (≈ 33.8 µM) |
| O=C(O)c1ccc(-n2cc(CNc3ccc(F)c(F)c3)c(-c3cccc(F)c3)n2)cc1 | 16 mg/L (≈ 37.8 µM) | 8 mg/L (≈ 18.9 µM) | 32 mg/L (≈ 75.6 µM) | 16 mg/L (≈ 37.8 µM) | > 32 mg/L | 16 mg/L (≈ 37.8 µM) | 16 mg/L (≈ 37.8 µM) | 32 mg/L (≈ 75.6 µM) | 16 mg/L (≈ 37.8 µM) | 32 mg/L (≈ 75.6 µM) |
| O=C(O)c1ccc(-n2cc(CNc3cc(C(F)(F)F)cc(C(F)(F)F)c3)c(-c3ccc(F)c(F)c3)n2)cc1 | 0.5 mg/L (≈ 0.924 µM) | 0.5 mg/L (≈ 0.924 µM) | 4 mg/L (≈ 7.39 µM) | 1 mg/L (≈ 1.85 µM) | 2 mg/L (≈ 3.69 µM) | 0.5 mg/L (≈ 0.924 µM) | 1 mg/L (≈ 1.85 µM) | 2 mg/L (≈ 3.69 µM) | 1 mg/L (≈ 1.85 µM) | 2 mg/L (≈ 3.69 µM) |
| O=C(O)c1ccc(-n2cc(CNc3cccc(F)c3)c(-c3ccc(F)cc3)n2)cc1 | 32 mg/L (≈ 78.9 µM) | 8 mg/L (≈ 19.7 µM) | 32 mg/L (≈ 78.9 µM) | 16 mg/L (≈ 39.5 µM) | > 32 mg/L | 16 mg/L (≈ 39.5 µM) | 16 mg/L (≈ 39.5 µM) | > 32 mg/L | 16 mg/L (≈ 39.5 µM) | > 32 mg/L |
| O=C(O)c1ccc(-n2cc(CNc3ccc(Oc4ccccc4)cc3)c(-c3ccc(F)cc3)n2)cc1 | 2 mg/L (≈ 4.17 µM) | 2 mg/L (≈ 4.17 µM) | 4 mg/L (≈ 8.34 µM) | 4 mg/L (≈ 8.34 µM) | 8 mg/L (≈ 16.7 µM) | 1 mg/L (≈ 2.09 µM) | 2 mg/L (≈ 4.17 µM) | 4 mg/L (≈ 8.34 µM) | 2 mg/L (≈ 4.17 µM) | 4 mg/L (≈ 8.34 µM) |
| O=C(O)c1ccc(-n2cc(CNc3ccc(F)c(Cl)c3)c(-c3ccc(F)c(F)c3)n2)cc1 | 4 mg/L (≈ 8.74 µM) | 2 mg/L (≈ 4.37 µM) | 8 mg/L (≈ 17.5 µM) | 8 mg/L (≈ 17.5 µM) | 16 mg/L (≈ 34.9 µM) | 2 mg/L (≈ 4.37 µM) | 8 mg/L (≈ 17.5 µM) | 32 mg/L (≈ 69.9 µM) | 8 mg/L (≈ 17.5 µM) | 8 mg/L (≈ 17.5 µM) |
| O=C(O)c1ccc(-n2cc(CNc3ccc(Cl)c(C(F)(F)F)c3)c(-c3ccc(F)c(F)c3)n2)cc1 | 1 mg/L (≈ 1.97 µM) | 0.5 mg/L (≈ 0.985 µM) | 4 mg/L (≈ 7.88 µM) | 2 mg/L (≈ 3.94 µM) | 4 mg/L (≈ 7.88 µM) | 0.5 mg/L (≈ 0.985 µM) | 1 mg/L (≈ 1.97 µM) | 4 mg/L (≈ 7.88 µM) | 2 mg/L (≈ 3.94 µM) | 2 mg/L (≈ 3.94 µM) |
| Cc1cc(NCc2cn(-c3ccc(C(=O)O)cc3)nc2-c2ccc(F)cc2)ccc1Br | 2 mg/L (≈ 4.16 µM) | 1 mg/L (≈ 2.08 µM) | 4 mg/L (≈ 8.33 µM) | 4 mg/L (≈ 8.33 µM) | 16 mg/L (≈ 33.3 µM) | 2 mg/L (≈ 4.16 µM) | 4 mg/L (≈ 8.33 µM) | 8 mg/L (≈ 16.7 µM) | 2 mg/L (≈ 4.16 µM) | 8 mg/L (≈ 16.7 µM) |
| O=C(O)c1ccc(-n2cc(CNc3ccc(F)c(F)c3F)c(-c3ccc(F)c(F)c3)n2)cc1 | 8 mg/L (≈ 17.4 µM) | 2 mg/L (≈ 4.35 µM) | > 32 mg/L | > 32 mg/L | > 32 mg/L | 2 mg/L (≈ 4.35 µM) | > 32 mg/L | > 32 mg/L | > 32 mg/L | > 32 mg/L |
| O=C(O)c1ccc(-n2cc(CNc3ccc(C(F)(F)F)cc3)c(-c3ccc(F)c(F)c3)n2)cc1 | 2 mg/L (≈ 4.22 µM) | 1 mg/L (≈ 2.11 µM) | 4 mg/L (≈ 8.45 µM) | 2 mg/L (≈ 4.22 µM) | > 32 mg/L | 1 mg/L (≈ 2.11 µM) | 2 mg/L (≈ 4.22 µM) | > 32 mg/L | 4 mg/L (≈ 8.45 µM) | 8 mg/L (≈ 16.9 µM) |
| O=C(O)c1ccc(-n2cc(CNc3ccc(Br)c(Cl)c3)c(-c3cccc(F)c3)n2)cc1 | 1 mg/L (≈ 2 µM) | 1 mg/L (≈ 2 µM) | 4 mg/L (≈ 7.99 µM) | 1 mg/L (≈ 2 µM) | 8 mg/L (≈ 16 µM) | 1 mg/L (≈ 2 µM) | – | 4 mg/L (≈ 7.99 µM) | 2 mg/L (≈ 3.99 µM) | 4 mg/L (≈ 7.99 µM) |

Source: ChEMBL document CHEMBL5365500, “Development and Antibacterial Properties of 4-[4-(Anilinomethyl)-3-phenylpyrazol-1-yl]benzoic Acid Derivatives as Fatty Acid Biosynthesis Inhibitors” (J Med Chem, 2023)
